Values of other authors, collected in patent US20020022057A1, “Oral delivery of pharmaceuticals via encapsulation” (priority 2000, published 2002).

What was measured:
[1] = applied topically to the skin
[2] = sublingual versus oral

skin reactions, including erythema and peeling [1]	Structure (SMILES)	sublingual applications more effective than oral applications [2]
30 % of the subjects	CC(=O)Oc1ccccc1C(=O)O [Aspirin, aspirin]	
	CC(=O)[C@H]1CC[C@H]2[C@@H]3CCC4=CC(=O)CC[C@]4(C)[C@H]3CC[C@]12C [progesterone]	50%
